Reference: US20160311795A1, “PYRIMIDINE DIAMINE DERIVATIVES AS INHIBITORS OF CYTOSOLIC HSP90” (CALASIA PHARMACEUTICALS, INC., priority 2012, published 2016)

Tested on: Caspase-3 in LnCaP cells
Experiment: Caspase 3/7 induction
Assay type: cell-based, human
Conditions: 10 μM concentration
Protocol: Akt1 levels in the cell lysates were measured using kits from R&D Systems used according to the manufacturer's recommendations. Cell lysates were assayed at a 1:24 dilution for the Akt1 ELISA. The Akt1 concentrations in the cell lysates were extrapolated from the standard curve and corrected for lysate protein concentration. Akt1 levels were determined using a micro-titer plate reader (Model #Synergy HT; BioTek Inc., Winooski, Vt.). LnCaP cells were cultured in culture medium and passaged after lifting using 0.25% trypsin/EDTA. LnCaP cells were seeded into a 96 well tissue culture plate at 1.3×10^4 cells per well in a volume of 100 uL of culture medium. […] Caspase 3/7 activity was measured using a Homogeneous Caspase 3/7 Assay Kit used according to the manufacturer's recommendations. In detail, an equal volume of Caspase 3/7 Assay Kit reagent was added to the wells and fluorescence readings (Ex/Em 485/528) were taken after 3, 6, and 23 h at ambient temperature using a micro-titer plate reader. […] Fluorescence intensities of the dilutions were measured to obtain a standard curve. […] Cell viability was measured with the ATPlite Kit used according to the manufacturer's recommendation. […] Cultures were mixed at 1,000 rpm for 2 min in the dark and luminescence quantification was accomplished using a micro-titer plate reader (POLARstar Omega micro-titer plate reader; BMG Labtech).

With `COc1c(C)cnc(CN(CCc2ccccc2)c2cc(Cl)nc(N)n2)c1C` [SBI-0639353, 6-Chloro-N4-((4-methoxy-3,5-dimethylpyridin-2-yl)methyl)-N4-phenethylpyrimidine-2,4-diamine] as the molecule, how does the “induction of Caspase-3” value read?
Its value is “induction of Caspase-3”.
